# Results as given in US7598258B2, “Quinoline derivatives and quinazoline derivatives inhibiting autophosphorylation of macrophage colony stimulating factor receptor” (Kirin Beer Kabushiki Kaisha, priority 2002, dated 2009).
# Target: T1, Human KDR (Homo sapiens, UniProt P35968)
# T1 construct: expressed in transfected cells; host or cells: NIH3T3 cells (mouse fibroblasts)
# Experiment: Inhibition of KDR phosphorylation in human KDR-transfected NIH3T3 cells (ELISA);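 as to Selection ratio (KDR phosphorylation IC50 / c-fms phosphorylation IC50): class 2 means ratio of 10 or more and class 3 means 50 or more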
# Assay type: cell-based
# Settings: for Selection ratio (KDR phosphorylation IC50 / c-fms phosphorylation IC50): class 0-3; for IC50: human KDR-transfected NIH3T3 cells, VEGF 100 ng/ml, ELISA, read-out: KDR phosphorylation 50% inhibitory concentration (IC50)
# Outline: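 NIH3T3 cells transfected with human KDR, in 0.1% FCS medium, treated with compound 1 hr at 37° C, then stimulated with VEGF 100 ng/ml for 2 min. Lysate KDR phosphorylation measured by anti-phosphotyrosine capture/anti-KDR ELISA (A450); IC50 from inhibition normalized between VEGF-stimulated and unstimulated wells.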
# T1 sequence (P35968 20-1356): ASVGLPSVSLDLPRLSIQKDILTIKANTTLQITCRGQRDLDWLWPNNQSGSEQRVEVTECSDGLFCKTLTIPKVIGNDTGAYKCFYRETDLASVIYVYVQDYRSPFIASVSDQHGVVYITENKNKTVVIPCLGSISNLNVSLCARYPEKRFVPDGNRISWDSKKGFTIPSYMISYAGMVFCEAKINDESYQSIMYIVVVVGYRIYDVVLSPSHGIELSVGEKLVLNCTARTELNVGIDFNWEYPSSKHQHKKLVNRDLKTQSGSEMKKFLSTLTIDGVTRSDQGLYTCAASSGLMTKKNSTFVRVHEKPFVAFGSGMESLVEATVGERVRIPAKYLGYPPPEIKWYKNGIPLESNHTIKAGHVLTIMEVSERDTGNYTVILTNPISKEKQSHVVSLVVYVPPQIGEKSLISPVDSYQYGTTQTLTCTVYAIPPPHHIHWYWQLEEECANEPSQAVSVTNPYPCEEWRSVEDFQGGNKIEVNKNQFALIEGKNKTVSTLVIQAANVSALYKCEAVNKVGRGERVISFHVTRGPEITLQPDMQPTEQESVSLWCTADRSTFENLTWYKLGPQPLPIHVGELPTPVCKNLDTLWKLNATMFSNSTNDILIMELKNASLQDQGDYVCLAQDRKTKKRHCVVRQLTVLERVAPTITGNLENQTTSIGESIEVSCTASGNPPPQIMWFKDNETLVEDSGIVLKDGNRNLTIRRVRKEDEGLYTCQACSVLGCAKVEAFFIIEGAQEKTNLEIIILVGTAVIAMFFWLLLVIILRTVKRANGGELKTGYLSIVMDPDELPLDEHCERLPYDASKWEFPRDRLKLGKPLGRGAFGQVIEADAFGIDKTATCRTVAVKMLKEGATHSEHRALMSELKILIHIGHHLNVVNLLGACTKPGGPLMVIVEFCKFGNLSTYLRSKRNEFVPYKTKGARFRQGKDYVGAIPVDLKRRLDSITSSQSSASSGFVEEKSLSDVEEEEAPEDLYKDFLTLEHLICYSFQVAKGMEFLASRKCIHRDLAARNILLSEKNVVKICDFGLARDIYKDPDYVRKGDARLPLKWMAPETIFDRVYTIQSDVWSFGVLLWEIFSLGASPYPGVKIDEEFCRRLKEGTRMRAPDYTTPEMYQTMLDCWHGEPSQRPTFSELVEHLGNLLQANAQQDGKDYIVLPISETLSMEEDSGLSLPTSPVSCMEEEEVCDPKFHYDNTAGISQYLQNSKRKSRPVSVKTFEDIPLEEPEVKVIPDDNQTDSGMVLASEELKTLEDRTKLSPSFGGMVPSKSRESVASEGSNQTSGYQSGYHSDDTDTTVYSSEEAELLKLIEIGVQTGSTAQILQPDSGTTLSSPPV
Selection ratio (KDR phosphorylation IC50 / c-fms phosphorylation IC50),IC50 [nM],SMILES
3 (when the value was 50 or more),1050,"COc1cc2nccc(Oc3ccc(NC(=O)N[C@@H](C)c4nccs4)cc3OC)c2cc1OC [Example 81, N-{4-[(6,7-Dimethoxy-4-quinolyl)oxy]-3-methoxyphenyl}-N′-[(1S)-1-(1,3-thiazol-2-yl)ethyl]urea]"
3 (when the value was 50 or more),650,"COc1cc2nccc(Oc3ccc(NC(=O)N[C@H](C)c4nccs4)cc3OC)c2cc1OC [Example 82, N-{4-[(6,7-Dimethoxy-4-quinolyl)oxy]-3-methoxyphenyl}-N′-[(1R)-1-(1,3-thiazol-2-yl)ethyl]urea]"

# The next lines start with the compound.
SMILES,Selection ratio (KDR phosphorylation IC50 / c-fms phosphorylation IC50),IC50 [nM]
"COc1cc2nccc(Oc3ccc(NC(=O)NC(C)c4nccs4)c(F)c3)c2cc1OC (stereo not shown) [Example 70, N-{4-[(6,7-Dimethoxy-4-quinolyl)oxy]-2-fluorophenyl}-N′-[1-(1,3-thiazol-2-yl)ethyl]urea]",2 (when the value was 10 or more),55.1
"COc1cc2nccc(Oc3ccc(NC(=O)N[C@@H](C)c4nccs4)c(F)c3)c2cc1OC [Example 71, N-{4-[(6,7-Dimethoxy-4-quinolyl)oxy]-2-fluorophenyl}-N′-[(1S)-1-(1,3-thiazol-2-yl)ethyl]urea]",2 (when the value was 10 or more),39.9
"COc1cc2nccc(Oc3ccc(NC(=O)N[C@H](C)c4nccs4)c(F)c3)c2cc1OC [Example 72, N-{4-[(6,7-Dimethoxy-4-quinolyl)oxy]-2-fluorophenyl}-N′-[(1R)-1-(1,3-thiazol-2-yl)ethyl]urea]",1 (when the value was 5 or more),35.6
"COc1cc2nccc(Oc3ccc(NC(=O)NC(C)c4nccs4)cc3F)c2cc1OC (stereo not shown) [Example 73, N-{4-[(6,7-Dimethoxy-4-quinolyl)oxy]-3-fluorophenyl}-N′-[1-(1,3-thiazol-2-yl)ethyl]urea]",2 (when the value was 10 or more),43.3
"COc1cc2nccc(Oc3ccc(NC(=O)NC(C)c4nccs4)cc3)c2cc1OC (stereo not shown) [Example 77, N-{4-[(6,7-Dimethoxy-4-quinolyl)oxy]phenyl}-N′-[1-(1,3-thiazol-2-yl)ethyl]urea]",2 (when the value was 10 or more),101
"COc1cc2nccc(Oc3ccc(NC(=O)N[C@@H](C)c4nccs4)cc3)c2cc1OC [Example 78, N-{4-[(6,7-Dimethoxy-4-quinolyl)oxy]phenyl}-N′-[(S)-1-(1,3-thiazol-2-yl)ethyl]urea]",2 (when the value was 10 or more),53.9
"COc1cc2nccc(Oc3ccc(NC(=O)N[C@H](C)c4nccs4)cc3)c2cc1OC [Example 79, N-{4-[(6,7-Dimethoxy-4-quinolyl)oxy]phenyl}-N′-[(1R)-1-(1,3-thiazol-2-yl)ethyl]urea]",2 (when the value was 10 or more),95.2
"COc1cc2nccc(Oc3ccc(NC(=O)NC(C)c4nccs4)cc3OC)c2cc1OC (stereo not shown) [Example 80, N-{4-[(6,7-Dimethoxy-4-quinolyl)oxy]-3-methoxyphenyl}-N′-[1-(1,3-thiazol-2-yl)ethyl]urea]",3 (when the value was 50 or more),526
"COc1cc2nccc(Oc3ccc(NC(=O)NC(C)c4nccs4)c(C(F)(F)F)c3)c2cc1OC (stereo not shown) [Example 83, N-[4-[(6,7-Dimethoxy-4-quinolyl)oxy]-2-(trifluoromethyl)phenyl]-N′-[1-(1,3-thiazol-2-yl)ethyl]urea]",0 (KDR phosphorylation 50% inhibitory concentration [μM]/c-fms phosphorylation 50% inhibitory concentration [μM] was less than 5),7.9
